Data set [1] relates to Mus musculus. The data set can be described thus: Anticonvulsant activity in Swiss albino Mus musculus (mouse) assessed as protection against maximal electroshock-induced seizures at 30 mg/kg, ip after 0.5 hr. Type of data set: functional, organism-based. The arrangement: dose 30 mg/kg.
Data set [2] has as its system Rattus norvegicus. In words: Anticonvulsant activity in Wistar Rattus norvegicus (rat) assessed as protection against maximal electroshock-induced seizures at 30 mg/kg, po after 4 hr. Type of data set: functional.
The test system of data set [3] is Rattus norvegicus. In words: Neurotoxicity in Wistar Rattus norvegicus (rat) assessed as minimal motor impairment at 30 mg/kg, po after 0.25 to 4 hr by rotorod test. The format is toxicity, organism-based. The arrangement: dose 30 mg/kg, route oral. The following applies: in vivo.
Data set [4] relates to Rattus norvegicus. In words: Anticonvulsant activity in Wistar Rattus norvegicus (rat) assessed as protection against maximal electroshock-induced seizures at 30 mg/kg, po after 2 hr. Type of data set: functional.
Data set [5] has as its system Rattus norvegicus. The data set can be described thus: Anticonvulsant activity in Wistar Rattus norvegicus (rat) assessed as protection against maximal electroshock-induced seizures at 30 mg/kg, po after 1 hr. Type of data set: functional.
Data set [6] concerns Rattus norvegicus. The data set can be described thus: Anticonvulsant activity in Wistar Rattus norvegicus (rat) assessed as protection against maximal electroshock-induced seizures at 30 mg/kg, po after 0.5 hr. The format is functional.
The test system of data set [7] is Rattus norvegicus. The data set can be described thus: Anticonvulsant activity in Wistar Rattus norvegicus (rat) assessed as protection against maximal electroshock-induced seizures at 30 mg/kg, po after 0.25 hr. Type of data set: functional.
Data set [8] has as its system Mus musculus. In words: Neurotoxicity in Swiss albino Mus musculus (mouse) assessed as minimal motor impairment at 300 mg/kg, ip after 4 hr by rotorod test. Type of data set: toxicity, organism-based. The arrangement: dose 300 mg/kg, route intraperitoneal. Conditions: in vivo.
For data set [9], the system named is Mus musculus. In words: Neurotoxicity in Swiss albino Mus musculus (mouse) assessed as minimal motor impairment at 300 mg/kg, ip after 0.5 hr by rotorod test. Type of data set: toxicity, organism-based. Also on record: dose 300 mg/kg, route intraperitoneal. The following applies: in vivo.
For data set [10], the system named is Mus musculus. In words: Anticonvulsant activity in Swiss albino Mus musculus (mouse) assessed as protection against subcutaneous pentylenetetrazole-induced seizure at 300 mg/kg, ip after 4 hr. The format is functional, organism-based. Also on record: dose 300 mg/kg.
Data set [11] concerns Mus musculus. The data set can be described thus: Anticonvulsant activity in Swiss albino Mus musculus (mouse) assessed as protection against subcutaneous pentylenetetrazole-induced seizure at 100 mg/kg, ip after 0.5 hr. Also on record: dose 100 mg/kg. Type of data set: functional, organism-based.
Data set [12] has as its system Mus musculus. The data set can be described thus: Anticonvulsant activity in Swiss albino Mus musculus (mouse) assessed as protection against maximal electroshock-induced seizures at 100 mg/kg, ip after 4 hr. Type of data set: functional, organism-based. Also on record: dose 100 mg/kg.
Data set [13] concerns Mus musculus. The data set can be described thus: Anticonvulsant activity in Swiss albino Mus musculus (mouse) assessed as protection against maximal electroshock-induced seizures at 300 mg/kg, ip after 4 hr. The format is functional, organism-based. Also on record: dose 300 mg/kg.
For data set [14], the system named is Mus musculus. The data set can be described thus: Anticonvulsant activity in Swiss albino Mus musculus (mouse) assessed as protection against maximal electroshock-induced seizures at 300 mg/kg, ip after 0.5 hr. The format is functional, organism-based. Also on record: dose 300 mg/kg.
For data set [15], the system named is Mus musculus. The data set can be described thus: Anticonvulsant activity in Swiss albino Mus musculus (mouse) assessed as protection against subcutaneous pentylenetetrazole-induced seizure at 300 mg/kg, ip after 0.5 hr. The format is functional, organism-based. The arrangement: dose 300 mg/kg.
The subject of data set [16] is Mus musculus. The data set can be described thus: Anticonvulsant activity in Swiss albino Mus musculus (mouse) assessed as protection against maximal electroshock-induced seizures at 100 mg/kg, ip after 0.5 hr. The format is functional, organism-based. The arrangement: dose 100 mg/kg.
Data set [17] has as its system Mus musculus. The data set can be described thus: Neurotoxicity in Swiss albino Mus musculus (mouse) assessed as minimal motor impairment at 100 mg/kg, ip after 0.5 hr by rotorod test. The format is toxicity, organism-based. Also on record: dose 100 mg/kg, route intraperitoneal. Conditions: in vivo.

The source made the active and inactive calls. The calls are words filed in the database; no cut-off is given here.

Take `Cc1nc2c(Br)cc(Br)cc2c(=O)n1-c1ccc(C(=O)N2N=C(c3ccccc3)CC2c2ccc(Cl)cc2)cc1` (stereo not drawn): the result in data set [1], in data set [10], in data set [11] and in data set [12] was Active. The Activity in data set [2] was 100%; in [3], “Non-toxic”; in [4], 100%; in [5] it was 50%; in data set [6], 50%; in data set [7], 25%. In addition, the Activity entry in data set [8] and in data set [9] was “Non-toxic” each time.
For the compound `CCC1(C)CC(=O)NC1=O` (stereo not drawn) [ETHOSUXIMIDE], the Activity result in [8] and in data set [9] was “Non-toxic” each time. For the same compound, the outcome in data set [10] and in data set [11] was Active. The result in data set [13] and in data set [14] was inactive.
`COc1ccc(C2CC(c3ccccc3)=NN2C(=O)c2ccc(-n3c(-c4ccccc4)nc4ccccc4c3=O)cc2)cc1` (stereo not drawn): the outcome in [10] and in data set [13] was Active. The result in data set [15] and in data set [14] was inactive.
For the compound `COc1ccc(C2CC(c3ccccc3)=NN2C(=O)c2ccc(-n3c(C)nc4c(Br)cc(Br)cc4c3=O)cc2)cc1` (stereo not drawn), the result in [16], in data set [15] and in [13] was Active. Further, the Activity entry in data set [8] and in [9] was “Toxic” in each case. Also, the outcome in data set [10] was inactive.
`O=C(c1ccc(-n2c(-c3ccccc3)nc3ccccc3c2=O)cc1)N1N=C(c2ccccc2)CC1c1ccc(Cl)cc1` (stereo not drawn): the outcome in data set [16], in data set [15] and in data set [13] was Active. Besides, the results for the Activity result in data set [8] and in data set [9] were “Toxic” and “Non-toxic”, respectively. In addition, in data set [10], the outcome was inactive.
`Cc1nc2c(Br)cc(Br)cc2c(=O)n1-c1ccc(C(=O)N2N=C(c3ccccc3)CC2c2cccc([N+](=O)[O-])c2)cc1` (stereo not drawn): the result in data set [10] was Active. For the same compound, the outcome in [15], in [13] and in data set [14] was inactive.
For the compound `COc1ccc(C2CC(c3ccccc3)=NN2C(=O)c2ccc(-n3c(C)nc4ccccc4c3=O)cc2)cc1` (stereo not drawn), the result in [16] and in data set [15] was Active. Further, the Activity entry in [8] is reported as “Toxic”; in data set [9] it was “Non-toxic”. The outcome in data set [10] and in data set [13] was inactive.
As to `Cc1nc2c(Br)cc(Br)cc2c(=O)n1-c1ccc(C(=O)N2N=C(c3ccccc3)CC2c2ccc(O)cc2)cc1` (stereo not drawn), the outcome in data set [1], in [10], in [15] and in data set [12] was Active. Besides, the Activity in [2] is on record as 100%; in data set [3] it was “Non-toxic”; in [4] it was 100%; in [5], 50%; in data set [6] it was 50%; in data set [7], 25%. Moreover, the Activity result in data set [8] was “Non-toxic”; in data set [9], “Toxic”.
For `Cc1ccc(C2CC(c3ccccc3)=NN2C(=O)c2ccc(-n3c(C)nc4ccccc4c3=O)cc2)cc1` (stereo not drawn), the outcome in data set [16], in [10], in [11] and in data set [13] was Active. The Activity in data set [2] is given as 75%; in data set [3], “Non-toxic”; in [4], 75%; in [5] it was 50%; in [6] it was 50%; in data set [7], 25%. For the same compound, the Activity result in data set [8] and in data set [9] was “Non-toxic” in each case.
In the case of `Cc1ccc(C2CC(c3ccccc3)=NN2C(=O)c2ccc(-n3c(-c4ccccc4)nc4ccccc4c3=O)cc2)cc1` (stereo not drawn), the result in data set [10], in data set [15] and in [13] was inactive. For the same compound, the result in [14] was Active.
In the case of `Cc1nc2ccccc2c(=O)n1-c1ccc(C(=O)N2N=C(c3ccccc3)CC2c2ccc(Cl)cc2)cc1` (stereo not drawn), the outcome in data set [1], in data set [10], in data set [11] and in data set [12] was Active. The Activity in [2] is 75%; in data set [3] it was “Non-toxic”; in [4], 75%; in [5] it was 50%; in data set [6], 50%; in data set [7], 25%. In addition, the Activity entry in data set [8] was “Non-toxic”; in [9], “Toxic”.
As for `O=C(c1ccc(-n2c(-c3ccccc3)nc3ccccc3c2=O)cc1)N1N=C(c2ccccc2)CC1c1cccc([N+](=O)[O-])c1` (stereo not drawn), the outcome in [10], in data set [13] and in data set [14] was inactive. Moreover, in data set [15], the result was Active.
Take `Cc1nc2ccccc2c(=O)n1-c1ccc(C(=O)N2N=C(c3ccccc3)CC2c2cccc([N+](=O)[O-])c2)cc1` (stereo not drawn): the result in [10] was Active. For the same compound, the result in data set [15], in data set [13] and in [14] was inactive.
For the compound `Cc1nc2c(Br)cc(Br)cc2c(=O)n1-c1ccc(C(=O)N2N=C(c3ccccc3)CC2c2ccc(N(C)C)cc2)cc1` (stereo not drawn), the result in [1], in data set [15] and in data set [12] was Active. In addition, the Activity is given as 0% in data set [2]; “Non-toxic” in [3]; 0% in [4]; 25% in [5]; 50% in data set [6]; 0% in [7]. The Activity result in data set [8] and in data set [9] was “Toxic” in each case. For the same compound, in [10], the result was inactive.
On to `O=C(c1ccc(-n2c(-c3ccccc3)nc3ccccc3c2=O)cc1)N1N=C(c2ccccc2)CC1c1ccc(O)cc1` (stereo not drawn), for which the outcome in [16] and in data set [10] was Active. Moreover, the Activity result in data set [8] and in data set [9] was “Non-toxic” each time. The result in data set [15] and in [13] was inactive.
For the compound `Cc1nc2ccccc2c(=O)n1-c1ccc(C(=O)N2N=C(c3ccccc3)CC2c2ccc(N(C)C)cc2)cc1` (stereo not drawn), the outcome in [16], in [10], in [11] and in data set [13] was Active. The Activity in data set [2] was 50%; in data set [3] it was “Non-toxic”; in data set [4], 25%; in [5], 0%; in data set [6] it was 0%; in data set [7], 0%. In addition, the Activity entry in data set [8] and in data set [9] was “Non-toxic” throughout.
For the compound `CN(C)c1ccc(C2CC(c3ccccc3)=NN2C(=O)c2ccc(-n3c(-c4ccccc4)nc4ccccc4c3=O)cc2)cc1` (stereo not drawn), the outcome in data set [10], in data set [15] and in data set [14] was inactive. The outcome in data set [13] was Active.
For `Cc1nc2ccccc2c(=O)n1-c1ccc(C(=O)N2N=C(c3ccccc3)CC2c2ccc(O)cc2)cc1` (stereo not drawn), the result in data set [1], in data set [10], in data set [15] and in data set [13] was Active. For the same compound, the Activity in [2] is 100%; in [3], “Non-toxic”; in data set [4], 100%; in [5], 50%; in [6], 50%; in data set [7], 25%. Also, the Activity entry in data set [8] and in [17] was “Toxic” each time.
